Experimental data reported in patent US20250114342A1, “APIXABAN ORAL LIQUID DOSAGE FORMS” (Shilpa Medicare Limited, priority 2023, published 2025).
Like-named read-outs stand apart in the source and are kept apart here.

Key:
[1] = Drug-excipients compatibility study (thermal stability); assay type: physicochemical
Experimental: Amounts of apixaban and other components identified here were determined chromatographically, e.g., High Performance Liquid Chromatograph (HPLC). Amounts of apixaban related substances identified here were also determined chromatographically, e.g., High Performance Liquid Chromatograph (HPLC).

[2] = cited from earlier work

Any individual unspecified impurity ([1]; 15 Days 60° C. Close Vial): 0.03 % w/w | Related substances: Acid Impurity ([1]; 15 Days 60° C. Close Vial): 0.02 % w/w | Total impurities ([1]; 15 Days 60° C. Close Vial): 0.07 % w/w | Any individual unspecified impurity ([1]; 30 Days 25° C. Close Vial): 0.03 % w/w | Related substances: Acid Impurity ([1]; 30 Days 25° C. Close Vial): 0.01 % w/w | Total impurities ([1]; 30 Days 25° C. Close Vial): 0.07 % w/w | Any individual unspecified impurity ([1]; 30 Days 25° C. Open Vial): 0.02 % w/w | Related substances: Acid Impurity ([1]; 30 Days 25° C. Open Vial): 0.02 % w/w | Total impurities ([1]; 30 Days 25° C. Open Vial): 0.07 % w/w | Any individual unspecified impurity ([1]; 30 Days 40° C. Close Vial): 0.03 % w/w | Related substances: Acid Impurity ([1]; 30 Days 40° C. Close Vial): 0.02 % w/w | Total impurities ([1]; 30 Days 40° C. Close Vial): 0.09 % w/w | Any individual unspecified impurity ([1]; 30 Days 40° C. Open Vial): 0.03 % w/w | Related substances: Acid Impurity ([1]; 30 Days 40° C. Open Vial): 0.02 % w/w | Total impurities ([1]; 30 Days 40° C. Open Vial): 0.09 % w/w | Any individual unspecified impurity ([1]; Initial): 0.02 % w/w | Related substances: Acid Impurity ([1]; Initial): 0.01 % w/w | Total impurities ([1]; Initial): 0.06 % w/w
Structure (SMILES): COc1ccc(-n2nc(C(N)=O)c3c2C(=O)N(c2ccc(N4CCCCC4=O)cc2)CC3)cc1 [apixaban, 1-(4-methoxyphenyl)-7-oxo-6-[4-(2-oxopiperidin-1-yl)phenyl]-4,5,6,7-tetrahydro-1H-pyrazolo[3,4-c]pyridine-3-carboxamide]
solubility ([2]; 2 mg of apixaban, 100% propylene glycol, 20° C.): partially soluble | solubility ([2]; higher amount of apixaban, 40% propylene glycol+60% glycerol, 20° C.): insoluble | solubility ([2]; higher amount of apixaban, 40% propylene glycol+60% glycerol, 40° C.): gets dissolved
